One series deals with T1, human PDE5 (Homo sapiens, UniProt O76074).
T1 construct: from tissue; host or cells: human platelets from fresh donor blood (10,000 g supernatant of sonified platelets)
In words: Inhibition of PDE5 activity (modified SPA test, human platelet lysate). To be noted: PDE5-containing human platelet lysate, 0.5 μM cGMP substrate, 37° C. The series is classed as biochemical. As for the experimental part:
As a source for human PDE5, platelets were used. For that purpose, 150 ml fresh blood from human donors anticoagulated with citrate [final concentration 0.3% (w/v)] was centrifuged at 200 g for 10 min to obtain the so-called platelet-rich-plasma (PRP) as a supernatant. 1/10 volume of ACD solution (85 mM Na3-citrate, 111 mM D-glucose, 71 mM citric acid, pH 4.4) was added to 9/10 volume of PRP. After centrifugation (1,400 g, 10 min) the cell pellet was resuspended in 3 ml homogenization buffer (NaCl 140 mM, KCl 3.8 mM, EGTA 1 mM, MgCl2 1 mM, Tris-HCl 20 mM, beta-mercaptoethanol 1 mM, pH 8.2) plus protease-inhibitor mix giving rise to the final concentrations of 0.5 mM Pefablock (Roche), 10 μM Leupeptin, 5 μM Trypsininhibitor, 2 mM Benzamidin and 10 μM Pepstatin A. The suspension was sonified and thereafter centrifuged for 15 min at 10,000 g. The resulting supernatant (platelet lysate) was used for enzymatic testings.
PDE5A1 activity is inhibited by the compounds of the invention in a modified SPA (scintillation proximity assay) test, supplied by Amersham Biosciences (see procedural instructions “phosphodiesterase [3H]cAMP SPA enzyme assay, code TRKQ 7090”), carried out in 96-well microtitre plates (MTP's). The test volume is 100 μl and contains 20 mM Tris buffer (pH 7.4), 0.1 mg of BSA (bovine serum albumin)/ml, 5 mM Mg^2+, 1 μM motapizone, 10 nM PDE2 inhibitor BAY-60-7550, 0.5 μM cGMP (including about 50,000 cpm of [3H]cGMP as a tracer), 1 μl of the respective compound dilution in dimethylsulfoxide (DMSO) and sufficient PDE5-containing platelet lysat (10,000×g supernatant, see above) to ensure that 10-20 wt % of the cGMP is converted under the said experimental conditions. […] After a preincubation of 5 min at 37° C., the reaction was started by adding the substrate (cGMP) and the assay was incubated for a further 15 min; after that, it was stopped by adding SPA beads (50 μl). In accordance with the manufacturer's instructions, the SPA beads had previously been resuspended in water, but were then diluted 1:3 (v/v) in water; the diluted solution also contains 3 mM 8-methoxymethyl-3-isobutyl-1-methylxanthine (IBMX) to ensure a complete PDE activity stop. After the beads have been sedimented (>30 min), the MTP's are analyzed in commercially available luminescence detection devices. The corresponding IC50 values of the compounds for the inhibition of PDE activity are determined from the concentration-effect curves by means of non-linear regression.

The structures appear in SMILES notation.

One may read the IC50 as the concentration that inhibits the measured activity by half. A lower IC50 goes with greater potency. What is called melting point is the temperature, or range, at which the solid turns liquid.

As to `O=C1CCCc2nc(Cc3ccccc3)c3[nH]c4ccccc4c3c21` [Example 3, 6-Benzyl-2,3,4,7-tetrahydro-indolo[2,3-c]quinolin-1-one], the melting point is 205 °C. This compound also had an IC50 at human PDE5 of 19.5 nM.
Taken in the same sequence, the figures for `COc1ccc(Cc2nc3c(c4c2[nH]c2ccccc24)CCC(C)C3)cc1` (stereo not shown) [Example 4, 6-(4-Methoxy-benzyl)-3-methyl-2,3,4,7-tetrahydro-1H-indolo[2,3-c]quinoline] were 186 °C and 3.39 nM.
The matching figures for `CC1(C)CC(=O)c2c(nc(Cc3ccc(OC(F)(F)F)cc3)c3[nH]c4ccccc4c23)C1` [Example 11, 3,3-Dimethyl-6-(4-trifluoromethoxy-benzyl)-2,3,4,7-tetrahydro-indolo[2,3-c]quinolin-1-one]: 141 to 143 °C and 135 nM.
Consider `CCOc1ccc(Cc2nc3c(c4c2[nH]c2ccccc24)C(=O)CC(C)(C)C3)cc1` [Example 12, 6-(4-Ethoxy-benzyl)-3,3-dimethyl-2,3,4,7-tetrahydro-indolo[2,3-c]quinolin-1-one], for which the melting point lay in the range of 179 to 181 °C. The IC50 at human PDE5 is 26.9 nM.
The matching figures for `CC(C)c1ccc(Cc2nc3c(c4c2[nH]c2ccccc24)C(=O)CC(C)(C)C3)cc1` [Example 14, 6-(4-Isopropyl-benzyl)-3,3-dimethyl-2,3,4,7-tetrahydro-indolo[2,3-c]quinolin-1-one]: 153 to 155 °C and 347 nM.
The matching figures for `COc1ccc(Cc2nc3c(c4c2[nH]c2ccccc24)C(=O)CC(C)(C)C3)cc1Cl` [Example 15, 6-(3-Chloro-4-methoxy-benzyl)-3,3-dimethyl-2,3,4,7-tetrahydro-indolo[2,3-c]quinolin-1-one]: 209 to 211 °C and 6.31 nM.
In the case of `COc1ccc(Cc2nc3c(c4c2[nH]c2ccccc24)C(=O)CC(C)C3)cc1` (stereo not shown) [Example 17, 6-(4-Methoxy-benzyl)-3-methyl-2,3,4,7-tetrahydro-indolo[2,3-c]quinolin-1-one], the melting point is 102 °C. The same compound showed an IC50 at human PDE5 of 3.16 nM.
The matching figures for `O=C1CCCc2nc(Cc3ccc4c(c3)OCO4)c3[nH]c4ccccc4c3c21` [Example 18, 6-Benzo[1,3]dioxol-5-ylmethyl-2,3,4,7-tetrahydro-indolo[2,3-c]quinolin-1-one]: 194 to 197 °C and 3.63 nM.
Regarding `CC1(C)CC(=O)c2c(nc(Cc3ccc(Cl)cc3)c3[nH]c4ccccc4c23)C1` [Example 20, 6-(4-Chloro-benzyl)-3,3-dimethyl-2,3,4,7-tetrahydro-indolo[2,3-c]quinolin-1-one], the melting point was 205 to 207 °C. In addition, at human PDE5, half-maximal inhibition (IC50) was put at 10.2 nM.
The compound `CC1(C)CC(=O)c2c(nc(Cc3cccc(Br)c3)c3[nH]c4ccccc4c23)C1` [Example 21, 6-(3-Bromo-benzyl)-3,3-dimethyl-2,3,4,7-tetrahydro-indolo[2,3-c]quinolin-1-one] returned a melting point of 215 to 219 °C. This compound had an IC50 at human PDE5 of 126 nM.
On to `CC1(C)CC(=O)c2c(nc(Cc3cc(F)cc(F)c3)c3[nH]c4ccccc4c23)C1` [Example 22, 6-(3,5-Difluoro-benzyl)-3,3-dimethyl-2,3,4,7-tetrahydro-indolo[2,3-c]quinolin-1-one], for which the melting point lay in the range of 204 to 208 °C. For the same compound, half-maximal inhibition on human PDE5 (IC50) required 15.5 nM.
In the case of `COc1ccc(Cc2nc3c(c4c2[nH]c2ccccc24)C(=O)CC(C)(C)C3)cc1F` [Example 23, 6-(3-Fluoro-4-methoxy-benzyl)-3,3-dimethyl-2,3,4,7-tetrahydro-indolo[2,3-c]quinolin-1-one], the melting point was in the range of 192 to 195 °C. On human PDE5, this compound showed a 50% inhibitory concentration (IC50) of 1.26 nM.
The matching figures for `CC1(C)CC(=O)c2c(nc(Cc3ccc(F)c(F)c3)c3[nH]c4ccccc4c23)C1` [Example 24, 6-(3,4-Difluoro-benzyl)-3,3-dimethyl-2,3,4,7-tetrahydro-indolo[2,3-c]quinolin-1-one]: 204 to 207 °C and 14.1 nM.
`Cc1ccc(Cc2nc3c(c4c2[nH]c2ccccc24)C(=O)CC(C)(C)C3)cc1` [Example 25, 3,3-Dimethyl-6-(4-methyl-benzyl)-2,3,4,7-tetrahydro-indolo[2,3-c]quinolin-1-one] had a melting point of 182 to 184 °C. The same compound showed an IC50 on human PDE5 of 2.95 nM.
Taken in the same sequence, the figures for `O=C1CCCc2nc(Cc3ccc([N+](=O)[O-])cc3)c3[nH]c4ccccc4c3c21` [Example 26, 6-(4-Nitro-benzyl)-2,3,4,7-tetrahydro-indolo[2,3-c]quinolin-1-one] were 138 to 140 °C and 355 nM.
Take `COc1ccc(Cc2nc3c(c4c2[nH]c2ccccc24)C(=O)CC(C)(C)C3)c(F)c1` [Example 27, 6-(2-Fluoro-4-methoxy-benzyl)-3,3-dimethyl-2,3,4,7-tetrahydro-indolo[2,3-c]quinolin-1-one]: the melting point is 138 to 140 °C. Moreover, half-maximal inhibition against human PDE5 (IC50) was put at 2.24 nM.
The matching figures for `CC1(C)CC(=O)c2c(nc(Cc3ccc(F)cc3)c3[nH]c4ccccc4c23)C1` [Example 28, 6-(4-Fluoro-benzyl)-3,3-dimethyl-2,3,4,7-tetrahydro-indolo[2,3-c]quinolin-1-one]: 200 to 204 °C and 18.2 nM.
The matching figures for `COc1ccc(Cc2nc3c(c4c2[nH]c2ccccc24)C(=O)CCC3)cc1F` [Example 29, 6-(3-Fluoro-4-methoxy-benzyl)-2,3,4,7-tetrahydro-indolo[2,3-c]quinolin-1-one]: 228 to 230 °C and 1.26 nM.
Taken in the same sequence, the figures for `COc1ccc(Cc2nc3c(c4c2[nH]c2ccccc24)CCCC3)cc1F` [Example 30, 6-(3-Fluoro-4-methoxy-benzyl)-2,3,4,7-tetrahydro-1H-indolo[2,3-c]quinoline] were 118 to 120 °C and 3.98 nM.
In the case of `COc1ccc(Cc2nc3c(c4c2[nH]c2ccccc24)C(=O)CC(C)(C)C3)c(F)c1F` [Example 31, 6-(2,3-Difluoro-4-methoxy-benzyl)-3,3-dimethyl-2,3,4,7-tetrahydro-indolo[2,3-c]quinolin-1-one], the melting point is 199 to 200 °C. Moreover, on human PDE5, the IC50 is 0.398 nM.
`COc1c(F)cc(Cc2nc3c(c4c2[nH]c2ccccc24)C(=O)CC(C)(C)C3)cc1F` [Example 32, 6-(3,5-Difluoro-4-methoxy-benzyl)-3,3-dimethyl-2,3,4,7-tetrahydro-indolo[2,3-c]quinolin-1-one] returned a melting point of 195 to 196 °C. On human PDE5, this compound had a half-inhibitory concentration (IC50) of 0.191 nM.
Taken in the same sequence, the figures for `CC1(C)CC(=O)c2c(nc(Cc3cccc(F)c3)c3[nH]c4ccccc4c23)C1` [Example 34, 6-(3-Fluoro-benzyl)-3,3-dimethyl-2,3,4,7-tetrahydro-indolo[2,3-c]quinolin-1-one] were 184 to 192 °C (dec.) and 4.9 nM.
`CC1(C)CC(=O)c2c(nc(Cc3cccc(Cl)c3)c3[nH]c4ccccc4c23)C1` [Example 35, 6-(3-Chloro-benzyl)-3,3-dimethyl-2,3,4,7-tetrahydro-indolo[2,3-c]quinolin-1-one] registered a melting point of 206 to 209 °C. The compound also had an IC50 on human PDE5 of 37.2 nM.
Taken in the same sequence, the figures for `CC1(C)CC(=O)c2c(nc(Cc3cc(F)cc(Cl)c3)c3[nH]c4ccccc4c23)C1` [Example 36, 6-(3-Chloro-5-fluoro-benzyl)-3,3-dimethyl-2,3,4,7-tetrahydro-indolo[2,3-c]quinolin-1-one] were 219 to 221 °C and 234 nM.
On to `CC1(C)CC(=O)c2c(nc(Cc3ccc4c(c3)OCO4)c3[nH]c4ccccc4c23)C1` [Example 37, 6-Benzo[1,3]dioxol-5-ylmethyl-3,3-dimethyl-2,3,4,7-tetrahydro-indolo[2,3-c]quinolin-1-one], for which the melting point was 193 to 196 °C (dec.). Besides, 4.9 nM corresponded to half-maximal inhibition on human PDE5 (IC50).
The matching figures for `CC1(C)CC(=O)c2c(nc(Cc3ccc(O)c(F)c3)c3[nH]c4ccccc4c23)C1` [Example 38, 6-(3-Fluoro-4-hydroxy-benzyl)-3,3-dimethyl-2,3,4,7-tetrahydro-indolo[2,3-c]quinolin-1-one]: 216 to 218 °C and 0.631 nM.
